≈ marks a conversion by molar mass, not a printed value.
Columns and labels:
Format in all cases: functional
Pseudomonas aeruginosa = test: Antimicrobial activity against Pseudomonas aeruginosa MTCC 2488 by broth microdilution method
Escherichia coli = test: Antimicrobial activity against Escherichia coli MTCC 442 by broth microdilution method
Aspergillus niger = test: Antimicrobial activity against Aspergillus niger MTCC 282
Candida albicans = test: Antimicrobial activity against Candida albicans MTCC 227
Streptococcus pyogenes = test: Antimicrobial activity against Streptococcus pyogenes MTCC 443 by broth microdilution method
Staphylococcus aureus = test: Antimicrobial activity against Staphylococcus aureus MTCC 96 by broth microdilution method
Aspergillus clavatus = test: Antimicrobial activity against Aspergillus clavatus MTCC 1323
[1] = system: Mycobacterium tuberculosis; test: Antimicrobial activity against Mycobacterium tuberculosis H37Rv; conditions: for MIC: Mycobacterium tuberculosis, H37Rv

SMILES	MIC (Pseudomonas aeruginosa)	MIC (Escherichia coli)	MIC (Aspergillus niger)	MIC (Candida albicans)	MIC (Streptococcus pyogenes)	MIC (Staphylococcus aureus)	MIC (Aspergillus clavatus)	inhibition (INH) [1]	MIC [1]
COc1ccc(-c2cc(N3CCCC3)n(-c3cccc(Cl)c3)c(=O)c2/N=N/c2ccc(Cl)c(Cl)c2)cc1	200 µg/mL (≈ 361 µM)	62.5 µg/mL (≈ 113 µM)	500 µg/mL (≈ 903 µM)	100 µg/mL (≈ 181 µM)	500 µg/mL (≈ 903 µM)	200 µg/mL (≈ 361 µM)	1000 µg/mL (≈ 1810 µM)	99%	250 µg/mL (≈ 451 µM)
COc1ccc(-c2cc(N3CCCC3)n(-c3cccc(Cl)c3)c(=O)c2/N=N/c2ccc(Cl)cc2[N+](=O)[O-])cc1	500 µg/mL (≈ 886 µM)	250 µg/mL (≈ 443 µM)	200 µg/mL (≈ 354 µM)	500 µg/mL (≈ 886 µM)	250 µg/mL (≈ 443 µM)	250 µg/mL (≈ 443 µM)	200 µg/mL (≈ 354 µM)	98%	1000 µg/mL (≈ 1770 µM)
COc1ccc(-c2cc(=O)n(-c3cccc(Cl)c3)c(N3CCCC3)c2/N=N/c2cccc(Cl)c2)cc1	500 µg/mL (≈ 963 µM)	500 µg/mL (≈ 963 µM)	500 µg/mL (≈ 963 µM)	250 µg/mL (≈ 481 µM)	100 µg/mL (≈ 193 µM)	100 µg/mL (≈ 193 µM)	500 µg/mL (≈ 963 µM)	–	–
COc1ccc(-c2cc(=O)n(-c3cccc(Cl)c3)c(N3CCCC3)c2/N=N/c2ccccc2C)cc1	500 µg/mL (≈ 1000 µM)	200 µg/mL (≈ 401 µM)	1000 µg/mL (≈ 2000 µM)	250 µg/mL (≈ 501 µM)	500 µg/mL (≈ 1000 µM)	500 µg/mL (≈ 1000 µM)	1000 µg/mL (≈ 2000 µM)	–	–
COc1ccc(-c2cc(=O)n(-c3cccc(Cl)c3)c(N3CCCC3)c2/N=N/c2cccc([N+](=O)[O-])c2)cc1	200 µg/mL (≈ 377 µM)	250 µg/mL (≈ 472 µM)	500 µg/mL (≈ 943 µM)	500 µg/mL (≈ 943 µM)	250 µg/mL (≈ 472 µM)	250 µg/mL (≈ 472 µM)	500 µg/mL (≈ 943 µM)	–	–
CO[C@H]1/C=C/O[C@@]2(C)Oc3c(C)c(O)c4c(O)c(c(/C=N/N5CCN(C)CC5)c(O)c4c3C2=O)NC(=O)/C(C)=C\C=C\[C@H](C)[C@H](O)[C@@H](C)[C@@H](O)[C@@H](C)[C@H](OC(C)=O)[C@@H]1C [RIFAMPIN]	–	–	–	–	–	–	–	98%	40 µg/mL (≈ 48.6 µM)
COc1ccc(-c2cc(=O)n(-c3cccc(Cl)c3)c(N3CCCC3)c2/N=N/c2c(Cl)cc([N+](=O)[O-])c(Cl)c2Cl)cc1	250 µg/mL (≈ 395 µM)	250 µg/mL (≈ 395 µM)	1000 µg/mL (≈ 1580 µM)	250 µg/mL (≈ 395 µM)	200 µg/mL (≈ 316 µM)	200 µg/mL (≈ 316 µM)	1000 µg/mL (≈ 1580 µM)	–	–
COc1ccc(-c2cc(N3CCCC3)n(-c3cccc(Cl)c3)c(=O)c2/N=N/c2cccc(C)c2)cc1	250 µg/mL (≈ 501 µM)	250 µg/mL (≈ 501 µM)	500 µg/mL (≈ 1000 µM)	500 µg/mL (≈ 1000 µM)	200 µg/mL (≈ 401 µM)	150 µg/mL (≈ 301 µM)	500 µg/mL (≈ 1000 µM)	–	–
COc1ccc(-c2cc(=O)n(-c3cccc(Cl)c3)c(N3CCCC3)c2/N=N/c2cc(Cl)ccc2Cl)cc1	500 µg/mL (≈ 903 µM)	100 µg/mL (≈ 181 µM)	> 1000 µg/mL	1000 µg/mL (≈ 1810 µM)	500 µg/mL (≈ 903 µM)	500 µg/mL (≈ 903 µM)	> 1000 µg/mL	99%	100 µg/mL (≈ 181 µM)
COc1ccc(-c2cc(N3CCCC3)n(-c3cccc(Cl)c3)c(=O)c2/N=N/c2ccccc2C)cc1	500 µg/mL (≈ 1000 µM)	200 µg/mL (≈ 401 µM)	1000 µg/mL (≈ 2000 µM)	1000 µg/mL (≈ 2000 µM)	500 µg/mL (≈ 1000 µM)	500 µg/mL (≈ 1000 µM)	1000 µg/mL (≈ 2000 µM)	–	–
O=C(O)c1cn(C2CC2)c2cc(N3CCNCC3)c(F)cc2c1=O [CIPROFLOXACIN]	–	25 µg/mL (≈ 75.4 µM)	–	–	50 µg/mL (≈ 151 µM)	50 µg/mL (≈ 151 µM)	–	–	–
COc1ccc(-c2cc(Cl)n(-c3cccc(Cl)c3)c(=O)c2)cc1	100 µg/mL (≈ 289 µM)	100 µg/mL (≈ 289 µM)	500 µg/mL (≈ 1440 µM)	500 µg/mL (≈ 1440 µM)	200 µg/mL (≈ 578 µM)	200 µg/mL (≈ 578 µM)	500 µg/mL (≈ 1440 µM)	–	–
COc1ccc(-c2cc(N3CCCC3)n(-c3cccc(Cl)c3)c(=O)c2/N=N/c2ccccc2Cl)cc1	100 µg/mL (≈ 193 µM)	100 µg/mL (≈ 193 µM)	250 µg/mL (≈ 481 µM)	500 µg/mL (≈ 963 µM)	250 µg/mL (≈ 481 µM)	250 µg/mL (≈ 481 µM)	250 µg/mL (≈ 481 µM)	–	–
COc1ccc(-c2cc(N3CCCC3)n(-c3cccc(Cl)c3)c(=O)c2/N=N/c2cccc([N+](=O)[O-])c2)cc1	200 µg/mL (≈ 377 µM)	200 µg/mL (≈ 377 µM)	500 µg/mL (≈ 943 µM)	500 µg/mL (≈ 943 µM)	250 µg/mL (≈ 472 µM)	250 µg/mL (≈ 472 µM)	500 µg/mL (≈ 943 µM)	–	–
COc1ccc(-c2cc(N3CCCC3)n(-c3cccc(Cl)c3)c(=O)c2/N=N/c2cc(Cl)ccc2Cl)cc1	500 µg/mL (≈ 903 µM)	250 µg/mL (≈ 451 µM)	> 1000 µg/mL	1000 µg/mL (≈ 1810 µM)	500 µg/mL (≈ 903 µM)	500 µg/mL (≈ 903 µM)	> 1000 µg/mL	–	–
COc1ccc(-c2cc(N3CCCC3)n(-c3cccc(Cl)c3)c(=O)c2/N=N/c2cccc(Cl)c2)cc1	500 µg/mL (≈ 963 µM)	500 µg/mL (≈ 963 µM)	500 µg/mL (≈ 963 µM)	250 µg/mL (≈ 481 µM)	100 µg/mL (≈ 193 µM)	100 µg/mL (≈ 193 µM)	500 µg/mL (≈ 963 µM)	–	–
CC1(C)S[C@@H]2[C@H](NC(=O)[C@H](N)c3ccccc3)C(=O)N2[C@H]1C(=O)O [AMPICILLIN]	100 µg/mL (≈ 286 µM)	100 µg/mL (≈ 286 µM)	–	–	100 µg/mL (≈ 286 µM)	250 µg/mL (≈ 715 µM)	–	–	–
COc1ccc(-c2cc(=O)n(-c3cccc(Cl)c3)c(N3CCCC3)c2/N=N/c2cccc(C)c2)cc1	250 µg/mL (≈ 501 µM)	250 µg/mL (≈ 501 µM)	500 µg/mL (≈ 1000 µM)	500 µg/mL (≈ 1000 µM)	200 µg/mL (≈ 401 µM)	250 µg/mL (≈ 501 µM)	500 µg/mL (≈ 1000 µM)	–	–
